Where a name gives a salt, the structure may show the parent alone.
| Structure (SMILES) | melting point |
| --- | --- |
| COCN1c2cc(C(=O)OC)ccc2Sc2nccnc21 | 151 to 152 °C |
| O=C(O)CC1C2CN(Cc3ccc4c(c3)Nc3nccnc3S4)CC1C21CCC1 (stereo not shown) [Example 86] | 90 to 92 °C |
| C#CC/N=C(\N)Cc1ccc2c(c1)Nc1nccnc1S2.Cl | 222 to 223 °C |
| OC1CC2CN(Cc3ccc4c(c3)Nc3nccnc3S4)CC2C1 (stereo not shown) | 192 to 195 °C |
| OCCCc1ncnc2c1ncn2Cc1ccc2c(c1)Nc1nccnc1S2 | 174 to 177 °C |
| CC1CC2CN(Cc3ccc4c(c3)Nc3nccnc3S4)CC(C1)C2CC(=O)O (stereo not shown) [Example 78] | 142 to 146 °C |
| CCc1nccn1Cc1ccc2c(c1)Nc1nccnc1S2 | 230 to 231 °C |
| c1cnc2c(n1)Nc1cc(Cn3cnc4cncnc43)ccc1S2 | 264 to 265 °C |
| CCOP(=O)(Cc1ccc2c(c1)Nc1nccnc1S2)OCC | 164 to 165 °C |
| CNc1c(N2CCN(Cc3ccc4c(c3)Nc3nccnc3S4)CC2)c(=O)c1=O | > 300 °C |
| CN1c2ccc(I)cc2Nc2nccnc21 | > 275 °C |
| Cl.O=C(O)Cc1ccc(NCc2ccc3c(c2)Nc2nccnc2S3)cc1 | 252 to 256 °C |
| CC/C(=C\c1c(C)ncn1Cc1ccc2c(c1)Nc1nccnc1S2)C(=O)O | 172 °C |
| ClCc1ccc2c(c1)Nc1nccnc1S2 | 161 to 162 °C |
| N#Cc1ncnc2c1ncn2Cc1ccc2c(c1)Nc1nccnc1S2 | 272 to 274 °C |
| Clc1nccn1Cc1ccc2c(c1)Nc1nccnc1S2 | 231 to 232 °C |
| CC(C)(O)C(=O)CC(SCC(=O)O)C1CCN(Cc2ccc3c(c2)Nc2nccnc2S3)CC1 (stereo not shown) | 130 to 132 °C |
| O=C1CC2(CCN(Cc3ccc4c(c3)Nc3nccnc3S4)CC2)CN1 | 211 to 212 °C |
| O=C1OCCC1=C1CCN(Cc2ccc3c(c2)Nc2nccnc2S3)CC1 | 159 to 162 °C |
| Cc1ccc(NCc2ccc3c(c2)Nc2nccnc2S3)cn1 | 205 to 208 °C |
| O=C1CCC2(CCN(Cc3ccc4c(c3)Nc3nccnc3S4)CC2)O1 | 199 to 203 °C |
| CCNC(=O)N(Cc1ccc2c(c1)Nc1nccnc1S2)c1cccnc1 | 210 to 212 °C |
| N#C/N=C(/Cc1ccc2c(c1)Nc1nccnc1S2)NCc1ccccn1 | 195 to 196 °C |
| CC(=O)NCc1ccc2c(c1)Nc1nccnc1N2C | 247 to 249 °C |
| CN(C)S(=O)(=O)NC1CCN(Cc2cnc3c(c2)Nc2nccnc2S3)CC1 | 205 to 210 °C |
| CN(Cc1ccc2c(c1)Nc1nccnc1S2)CC1CCC(C(=O)O)CC1 (stereo not shown) | 203 to 204 °C |

| Structure (SMILES) | melting point |
| --- | --- |
| CC(CCC1CCN(Cc2cnc3c(c2)Nc2nccnc2S3)CC1)C(=O)O (stereo not shown) | 115 to 118 °C |
| Cc1ncn(Cc2ccc3c(c2)Nc2nccnc2S3)c1CO | 188 to 192 °C |
| CN(C)C(=O)C#Cc1ccc2c(c1)Nc1nccnc1N2C | 203 to 205 °C |
| FC(F)(F)c1nccn1Cc1ccc2c(c1)Nc1nccnc1S2 | 231 to 233 °C |
| c1ccc(Oc2ccc(NCc3ccc4c(c3)Nc3nccnc3S4)cn2)cc1 | 162 to 165 °C |
| CC(=O)NCC1CCN(Cc2ccc3c(c2)Nc2nccnc2S3)CC1 | 168 to 170 °C |
| O=C(O)CC1CCC2(CC1)CN(Cc1ccc3c(c1)Nc1nccnc1S3)C2 | 145 °C (dec.) |
| c1ccc(-c2cn(Cc3ccc4c(c3)Nc3nccnc3S4)cn2)cc1 | 216 to 218 °C |
| c1cnc2c(n1)Nc1cc(CN3CCCCCC3)ccc1S2 | 161 to 163 °C |
| O=C(O)CNC1CCN(Cc2ccc3c(c2)Nc2nccnc2S3)CC1 | 206 to 208 °C |
| Brc1ccc(NCc2ccc3c(c2)Nc2nccnc2S3)nc1 | 265 to 268 °C |
| CC(CC(=O)O)C1CCN(Cc2ccc3c(c2)Nc2nccnc2S3)CC1 (stereo not shown) | 218 to 220 °C |
| O=c1ccn(Cc2ccc3c(c2)Nc2nccnc2S3)cc1 | > 275 °C |
| c1ccc2c(c1)CCCN2Cc1ccc2c(c1)Nc1nccnc1S2 | 208 to 210 °C |
| CC(CCC1CCN(Cc2ccc3c(c2)Nc2ncncc2S3)CC1)C(=O)O (stereo not shown) | 219 to 220 °C |
| COC(=O)c1ccc2c(c1)Nc1nccnc1S2 | 265 to 268 °C |
| CN1c2cc(C#N)ccc2Nc2nccnc21 | > 275 °C |
| O=C(c1ccccn1)c1nccn1Cc1ccc2c(c1)Nc1nccnc1S2 | 191 to 193 °C |
| OCC1(O)CCN(Cc2ccc3c(c2)Nc2nccnc2S3)CC1 | 170 to 173 °C |
| OCCCCC1CCN(Cc2ccc3c(c2)Nc2nccnc2S3)CC1 | 132 to 135 °C |
| O=C(O)CCCN1c2ccccc2Nc2nccnc21 | 273 to 274 °C |
| COc1ccc2c(c1)Nc1nccnc1N2C | 198 to 201 °C |
| c1cnc2c(n1)Nc1cc(Cn3cncn3)ccc1S2 | 223 to 226 °C |
| O=C(O)CNC(=O)NC1CCN(Cc2ccc3c(c2)Nc2nccnc2S3)CC1 | 207 to 210 °C |
| O=Cc1nccn1Cc1ccc2c(c1)Nc1nccnc1S2 | 218 to 219 °C |
| O=C(NCc1ccc2c(c1)Nc1nccnc1S2)c1cccnc1 | 243 to 245 °C (dec.) |

| Structure (SMILES) | melting point |
| --- | --- |
| CC(CCC1C2CCCC1CN(Cc1ccc3c(c1)Nc1nccnc1S3)C2)C(=O)O (stereo not shown) | 104 to 108 °C |
| NS(=O)(=O)c1ccc(CNCc2ccc3c(c2)Nc2nccnc2S3)cc1 | 210 to 212 °C |
| NCc1ncnc2c1ncn2Cc1ccc2c(c1)Nc1nccnc1S2 (as salt: oxalate) | 97 to 104 °C (dec.) |
| Cl.Oc1ccc2c(c1)Nc1nccnc1N2 | > 275 °C |
| CCC1(CC(=O)O)CCN(Cc2ccc3c(c2)Nc2nccnc2S3)CC1 | 225 to 226 °C |
| N#Cc1ccc2c(c1)Nc1nccnc1N2 | > 275 °C |
| CS(=O)(=O)N(Cc1ccc2c(c1)Nc1nccnc1S2)c1cccnc1 | 208 to 210 °C |
| NC(=O)C1CCN(Cc2ccc3c(c2)Nc2nccnc2S3)CC1 | 225 to 228 °C |
| CCOC(=O)/C=C/c1nccn1Cc1ccc2c(c1)Nc1nccnc1S2 | 213 to 215 °C |
| O=C(O)C1CC2(CCN(Cc3ccc4c(c3)Nc3nccnc3S4)CC2)O1 (stereo not shown) | 178 to 180 °C |
| CS(=O)(=O)N1CCC(NCc2ccc3c(c2)Nc2nccnc2S3)CC1 | 219 to 221 °C |
| O=C(O)CCC(=O)N1CCN(Cc2ccc3c(c2)Nc2nccnc2S3)CC1 | 240 to 242 °C |
| CCOC(=O)CSc1ccc(NCc2ccc3c(c2)Nc2nccnc2S3)cn1 | 118 to 122 °C |
| COc1ccc(NCc2ccc3c(c2)Nc2nccnc2S3)c(OC)n1 | 160 to 164 °C |
| C/C(=C\CC1CCN(Cc2ccc3c(c2)Nc2nccnc2S3)CC1)C(=O)O | 91 to 93 °C |
| CC(C(=O)O)=C1CC2(CCN(Cc3ccc4c(c3)Nc3nccnc3S4)CC2)C1 | 251 to 252 °C |
| COC(=O)CC1C2CCCC1CN(Cc1ccc3c(c1)N(C(C)=O)c1nccnc1S3)C2 (stereo not shown) | 160 to 162 °C |
| Cl.N=C(Cc1ccc2c(c1)Nc1nccnc1S2)Nc1ccccc1 | 245 to 249 °C (dec.) |
| CS(=O)(=O)NC1CN=C(Cc2ccc3c(c2)Nc2nccnc2S3)NC1.Cl (stereo not shown) | 275 to 277 °C |
| C(=N\c1ccccn1)/NCc1ccc2c(c1)Nc1nccnc1S2 | 137 to 142 °C |
| OC(c1ccc2c(c1)Nc1nccnc1S2)c1cc(Br)ccc1F (stereo not shown) | 202 to 203 °C |
| CCc1cc(NCc2ccc3c(c2)Nc2nccnc2S3)ccn1 | 148 to 152 °C |
| c1ccc(CCNCc2ccc3c(c2)Nc2nccnc2S3)nc1 | 179 to 182 °C |
| COCc1ccc2c(c1)Nc1nccnc1N2C | 169 to 172 °C |
| CCCCCCCCC/C(=C\c1ncn(Cc2ccc3c(c2)Nc2nccnc2S3)c1C)C(=O)O | 194 to 197 °C |
| Cl.N=C(N)NCc1ccc2c(c1)Nc1nccnc1S2 | 279 to 282 °C |

| Structure (SMILES) | melting point |
| --- | --- |
| CS(=O)(=O)NC1CCN(Cc2ccc3c(c2)Nc2nccnc2O3)CC1 | 241 to 243 °C |
| CC(C)(CCCCc1ccc(NCc2ccc3c(c2)Nc2nccnc2S3)cn1)C(=O)O | 158 to 161 °C |
| NC(=O)C1CCCCN1Cc1ccc2c(c1)Nc1nccnc1S2 (stereo not shown) | 209 to 211 °C |
| O=C(O)C1CCC(CNCc2ccc3c(c2)Nc2nccnc2S3)CC1 (stereo not shown) | 217 to 220 °C |
| O=C(O)C(O)C1CCN(Cc2ccc3c(c2)Nc2nccnc2S3)CC1 (stereo not shown) | 98 to 99 °C |
| NS(=O)(=O)NCCc1cn(Cc2ccc3c(c2)Nc2nccnc2S3)cn1 | 187 to 189 °C |
| c1cnc2ncn(Cc3ccc4c(c3)Nc3nccnc3S4)c2c1 | 265 °C (dec.) |
| c1ccc2c(NCc3ccc4c(c3)Nc3nccnc3S4)nccc2c1 | 222 to 225 °C |
| CCC/C(=N\OCC(=O)O)C1CCN(Cc2ccc3c(c2)Nc2nccnc2S3)CC1 | 193 to 195 °C |
| O=C(O)CC1=CCN(Cc2ccc3c(c2)Nc2nccnc2S3)CC1 | 124 to 128 °C |
| O=C(O)Cc1cc2c(s1)CN(Cc1ccc3c(c1)Nc1nccnc1S3)CC2 | 98 to 105 °C |
| O=c1ccn(Cc2ccc3c(c2)Nc2nccnc2S3)c(=O)[nH]1 | 269 to 271 °C |
| NC(Cc1ccc2c(c1)Nc1nccnc1S2)=NO | 252 to 254 °C |
| CS(=O)(=O)NCCC1CCN(Cc2ccc3c(c2)Nc2nccnc2S3)CC1 | 168 to 170 °C |
| CC(CCC1CCN(C(=O)NCc2ccc3c(c2)Nc2nccnc2S3)CC1)C(=O)O (stereo not shown) | 94 to 98 °C |
| CCOC(=O)COc1ccc(NCc2ccc3c(c2)Nc2nccnc2S3)cn1 | 230 to 235 °C |
| CN1c2ccc(C(O)c3nccs3)cc2Nc2nccnc21 (stereo not shown) | 203 to 204 °C |
| CC(C)c1nccn1Cc1ccc2c(c1)Nc1nccnc1S2 | 241 to 242 °C |
| OCc1ccc2c(c1)Nc1nccnc1S2 | 187 to 189 °C |
| CCCCC1(CC(=O)O)CC2(CCN(Cc3ccc4c(c3)Nc3nccnc3S4)CC2)C1 | 133 to 135 °C |
| CS(=O)(=O)NCC1=CCCN(Cc2ccc3c(c2)Nc2nccnc2S3)C1 | 110 to 112 °C |
| N#Cc1ccc(-c2cn(Cc3ccc4c(c3)Nc3nccnc3S4)cn2)cc1 | 262 to 264 °C |
| O=C(CN1CCC(C(=O)O)CC1)NCc1ccc2c(c1)Nc1nccnc1S2 | 226 to 230 °C (dec.) |
| O=C(O)C=C1C2CCCC1CN(Cc1ccc3c(c1)Nc1nccnc1S3)C2 | 253 to 255 °C |
| c1cnc2c(c1)ncn2Cc1ccc2c(c1)Nc1nccnc1S2 | 249 to 251 °C |

From patent publication US6518423B1, “Benzopiperidine derivatives” (Eisai Co., Ltd., priority 1996, dated 2003)
